From ChEMBL document CHEMBL1201862, “PubChem BioAssay data set” (2004)
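Method: 48-hour compound exposure of cells in 96-well plates, five concentrations, linear interpolation of endpoints. GI50 is the concentration that inhibits growth by half.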 Calls of active or inactive are those of the source. Rule as the data show it: active = GI50 up to about 1.1 µM and inactive = higher.

Experiments:
Assay in all cases: DTP human tumour cell line panel, 48 h
[1] = system: SR
[2] = system: RPMI-8226
[3] = system: NCI-H460
[4] = system: CAKI-1
[5] = system: LOX IMVI
[6] = system: A549
[7] = system: IGROV-1
[8] = system: K562
[9] = system: HCT-15
[10] = system: A498
[11] = system: HCC 2998
[12] = system: OVCAR-3
[13] = system: SK-OV-3
[14] = system: SF-268
[15] = system: U-251
[16] = system: SN12C
[17] = system: Malme-3M
[18] = system: NCI-H522
[19] = system: HOP-62

| SMILES | GI50 [1] | GI50 [2] | GI50 [3] | GI50 [4] | GI50 [5] | GI50 [6] | GI50 [7] | GI50 [8] | GI50 [9] [µM] | GI50 [10] | GI50 [11] | GI50 [12] | GI50 [13] | GI50 [14] | GI50 [15] | GI50 [16] | GI50 [17] | GI50 [18] | GI50 [19] |
| --- | --- | --- | --- | --- | --- | --- | --- | --- | --- | --- | --- | --- | --- | --- | --- | --- | --- | --- | --- |
| CCNCCNC(=O)c1ccc(Br)cc1 | > 100 µM (inactive) | > 100 µM (inactive) | > 100 µM (inactive) | > 100 µM (inactive) | > 100 µM (inactive) | > 100 µM (inactive) | > 100 µM (inactive) | > 100 µM (inactive) | > 100 | > 100 µM (inactive) | > 100 µM (inactive) | > 100 µM (inactive) | > 100 µM (inactive) | > 100 µM (inactive) | > 100 µM (inactive) | > 100 µM (inactive) |  |  |  |
| COC(=O)Cc1cc(=O)[nH]c2c1C(=O)CCC2 | > 100 µM (inactive) | > 100 µM (inactive) | > 100 µM (inactive) |  |  | > 100 µM (inactive) | > 100 µM (inactive) | > 100 µM (inactive) | > 100 |  | > 100 µM (inactive) | > 100 µM (inactive) | > 100 µM (inactive) | > 100 µM (inactive) | > 100 µM (inactive) | > 100 µM (inactive) | > 100 µM (inactive) | > 100 µM (inactive) |  |
| N#Cc1c(NN)nc(NN)c(C#N)c1-c1ccccc1 |  | > 100 µM (inactive) | > 100 µM (inactive) | > 100 µM (inactive) | > 100 µM (inactive) | > 100 µM (inactive) | > 100 µM (inactive) | > 100 µM (inactive) | > 100 | > 100 µM (inactive) | > 100 µM (inactive) | > 100 µM (inactive) | > 100 µM (inactive) | > 100 µM (inactive) |  | > 100 µM (inactive) | > 100 µM (inactive) |  | > 100 µM (inactive) |
| CCC(=O)c1cn(C)c(=O)c2ccccc12 | > 100 µM (inactive) | > 100 µM (inactive) | > 100 µM (inactive) | > 100 µM (inactive) | > 100 µM (inactive) | > 100 µM (inactive) | > 100 µM (inactive) | > 100 µM (inactive) | > 100 |  | > 100 µM (inactive) | > 100 µM (inactive) | > 100 µM (inactive) | > 100 µM (inactive) | > 100 µM (inactive) | > 100 µM (inactive) | > 100 µM (inactive) | > 100 µM (inactive) | > 100 µM (inactive) |
| COC1/C(=C\C(C)=O)c2ccccc2N1C(C)=O (stereo not given) | > 100 µM (inactive) | > 100 µM (inactive) | > 100 µM (inactive) | > 100 µM (inactive) |  | > 100 µM (inactive) | > 100 µM (inactive) | > 100 µM (inactive) | > 100 | > 100 µM (inactive) | > 100 µM (inactive) | > 100 µM (inactive) | > 100 µM (inactive) |  | > 100 µM (inactive) | > 100 µM (inactive) |  |  | > 100 µM (inactive) |
| c1ccc2c(CNCCCN3CCN(CCCNCc4cccc5ccccc45)CC3)cccc2c1 | 0.655 µM (active) | 1.03 µM (active) | 1.41 µM (inactive) | 1.72 µM (inactive) | 1.35 µM (inactive) | 2.01 µM (inactive) | 3.07 µM (inactive) | 0.299 µM (active) | 1.8 | 10.9 µM (inactive) |  | 2.89 µM (inactive) | 2.39 µM (inactive) | 2.37 µM (inactive) | 1.73 µM (inactive) | 3.68 µM (inactive) | 2.06 µM (inactive) | 1.59 µM (inactive) | 19.8 µM (inactive) |
| CC(=O)CC(=O)CCCC(=O)Nc1ccc(Cl)cc1C |  | > 100 µM (inactive) | > 100 µM (inactive) | > 100 µM (inactive) | > 100 µM (inactive) | > 100 µM (inactive) | > 100 µM (inactive) | > 100 µM (inactive) | > 100 | > 100 µM (inactive) | > 100 µM (inactive) | > 100 µM (inactive) | > 100 µM (inactive) | > 100 µM (inactive) | > 100 µM (inactive) | > 100 µM (inactive) | > 100 µM (inactive) | > 100 µM (inactive) |  |
| O=C(CC1(O)C(=O)Nc2ccccc21)c1ccco1 (stereo not given) |  | > 100 µM (inactive) | > 100 µM (inactive) | > 100 µM (inactive) | > 100 µM (inactive) | > 100 µM (inactive) | > 100 µM (inactive) | > 100 µM (inactive) | > 100 | > 100 µM (inactive) |  | > 100 µM (inactive) | > 100 µM (inactive) | > 100 µM (inactive) |  | > 100 µM (inactive) | > 100 µM (inactive) | > 100 µM (inactive) | > 100 µM (inactive) |
| S=c1sc2c(n1-c1ccccc1)N=CNC2S (stereo not given) | 95.9 µM (inactive) | 62.2 µM (inactive) | > 100 µM (inactive) | > 100 µM (inactive) | > 100 µM (inactive) | 65.9 µM (inactive) | > 100 µM (inactive) | 63.2 µM (inactive) | 97.3 |  | 33.1 µM (inactive) | 77.1 µM (inactive) | > 100 µM (inactive) | 56.5 µM (inactive) | 36.1 µM (inactive) | 69.3 µM (inactive) | 44.8 µM (inactive) | 45.5 µM (inactive) | 41.3 µM (inactive) |
| COc1ccc(NC(=O)CC(=O)n2nc(-c3ccccc3)c(/N=N/c3ccccc3C(=O)O)c2-c2ccccc2)cc1 | 62.2 µM (inactive) | > 100 µM (inactive) |  | > 100 µM (inactive) | > 100 µM (inactive) | > 100 µM (inactive) | 83.4 µM (inactive) | 52.7 µM (inactive) | > 100 |  | > 100 µM (inactive) | > 100 µM (inactive) | 15.9 µM (inactive) | > 100 µM (inactive) | 42.6 µM (inactive) | > 100 µM (inactive) |  | > 100 µM (inactive) | 30.1 µM (inactive) |
| Cc1ccnc(NS(=O)(=O)c2ccc(N=[N+]=[N-])cc2)n1 | 1.34 µM (inactive) | > 100 µM (inactive) | > 100 µM (inactive) | > 100 µM (inactive) | > 100 µM (inactive) | > 100 µM (inactive) | > 100 µM (inactive) |  | > 100 | > 100 µM (inactive) |  | > 100 µM (inactive) | > 100 µM (inactive) | > 100 µM (inactive) | > 100 µM (inactive) | > 100 µM (inactive) | > 67.9 µM (inactive) | > 100 µM (inactive) | > 100 µM (inactive) |
| COc1ccc2c(c1)[n+]([O-])c(C(N)=O)c(N)[n+]2[O-] | > 100 µM (inactive) | > 100 µM (inactive) | 54.6 µM (inactive) | > 100 µM (inactive) |  | > 100 µM (inactive) | 75.7 µM (inactive) | > 100 µM (inactive) | 61 | > 100 µM (inactive) |  | 32.7 µM (inactive) | > 100 µM (inactive) |  | 86.7 µM (inactive) | > 100 µM (inactive) | > 100 µM (inactive) | 17.1 µM (inactive) | > 100 µM (inactive) |
| O=[N+]([O-])c1ccc(/C=C/c2ccc(/C=C/c3ccc([N+](=O)[O-])cc3[N+](=O)[O-])cc2)c([N+](=O)[O-])c1 |  | > 100 µM (inactive) | > 100 µM (inactive) | > 100 µM (inactive) |  | > 100 µM (inactive) | > 100 µM (inactive) | > 100 µM (inactive) | > 100 | > 100 µM (inactive) | > 100 µM (inactive) | > 100 µM (inactive) | > 100 µM (inactive) |  | > 100 µM (inactive) |  | > 100 µM (inactive) |  | > 100 µM (inactive) |
| O=[N+]([O-])c1cc2c(cc1O)[nH]c1cccc([N+](=O)[O-])c12 | > 100 µM (inactive) | > 100 µM (inactive) | > 100 µM (inactive) | > 100 µM (inactive) | > 100 µM (inactive) | > 100 µM (inactive) |  | > 100 µM (inactive) | > 100 |  | > 100 µM (inactive) | > 100 µM (inactive) |  | > 100 µM (inactive) |  | > 100 µM (inactive) | > 100 µM (inactive) | > 100 µM (inactive) | > 100 µM (inactive) |
| COc1ccc(Br)c(CCCCC(=O)O)c1 |  | > 100 µM (inactive) | > 100 µM (inactive) | > 100 µM (inactive) | > 100 µM (inactive) | > 100 µM (inactive) | > 100 µM (inactive) | > 100 µM (inactive) | > 100 | > 100 µM (inactive) | > 100 µM (inactive) | > 100 µM (inactive) | > 100 µM (inactive) |  | > 100 µM (inactive) | > 100 µM (inactive) |  |  | > 100 µM (inactive) |
| CCOC(=O)C/C(=N\c1cc(C)on1)N(CC)CC.[O-][Cl+3]([O-])([O-])O | > 100 µM (inactive) | > 100 µM (inactive) | > 100 µM (inactive) | > 100 µM (inactive) |  | > 100 µM (inactive) | > 100 µM (inactive) | > 100 µM (inactive) | > 100 | > 100 µM (inactive) |  | > 100 µM (inactive) | > 100 µM (inactive) | > 100 µM (inactive) | > 100 µM (inactive) | > 100 µM (inactive) | > 100 µM (inactive) | > 100 µM (inactive) | > 100 µM (inactive) |
| COc1ccc(Cc2c(=O)[nH]nc3ccccc23)cc1 |  | > 100 µM (inactive) | > 100 µM (inactive) | > 100 µM (inactive) | > 100 µM (inactive) | 43.6 µM (inactive) | > 100 µM (inactive) | > 100 µM (inactive) | > 100 | > 100 µM (inactive) | > 100 µM (inactive) | > 100 µM (inactive) | > 100 µM (inactive) | > 100 µM (inactive) |  | > 100 µM (inactive) | > 100 µM (inactive) |  | > 100 µM (inactive) |
